Consider one compound from PMC8801435, “Legume Alternative Oxidase Isoforms Show Differential Sensitivity to Pyruvate Activation” (Frontiers in Plant Science, 2022).

Holding throughout (assay): O2 consumption (Clark electrode), activation of AOX in inverted membrane vesicles
Common to all, as to assay type: biochemical

For one test, the target named is T1, GmAOX1 (Glycine max, UniProt Q07185).
T1 construct: gene AOX1; mature form, predicted mitochondrial target peptide removed, new start Met (forward primer encodes M-ESTLALS), pET22b(+), E. coli BHH8 inverted membrane vesicles; apparent 28 kDa; reduced (DTT)
T1 sequence (Q07185 42-321): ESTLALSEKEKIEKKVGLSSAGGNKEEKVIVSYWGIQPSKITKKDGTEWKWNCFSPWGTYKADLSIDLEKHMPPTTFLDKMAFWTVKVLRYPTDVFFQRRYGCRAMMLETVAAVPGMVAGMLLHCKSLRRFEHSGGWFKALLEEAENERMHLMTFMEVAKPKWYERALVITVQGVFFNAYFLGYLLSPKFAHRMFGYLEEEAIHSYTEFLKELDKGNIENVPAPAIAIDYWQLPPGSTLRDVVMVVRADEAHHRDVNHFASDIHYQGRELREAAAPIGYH
The following applies: activator; 2.5 mM NADH, 5 mM DTT, 1 mM KCN, pH 7.0; discussion text b26 prints 6 μM; read-out: Present study / K1/2 PYR. From the text:
O2 consumption (Clark electrode), activation of AOX in inverted membrane vesicles on GmAOX1

A further test deals with T2, GmAOX2A (Glycine max, UniProt Q41266).
T2 construct: gene AOX2; mature form, predicted mitochondrial target peptide removed, new start Met (forward primer encodes M-MVSPA), pET22b(+), E. coli BHH8 inverted membrane vesicles; apparent 29 kDa; reduced (DTT)
T2 sequence (Q41266 58-333): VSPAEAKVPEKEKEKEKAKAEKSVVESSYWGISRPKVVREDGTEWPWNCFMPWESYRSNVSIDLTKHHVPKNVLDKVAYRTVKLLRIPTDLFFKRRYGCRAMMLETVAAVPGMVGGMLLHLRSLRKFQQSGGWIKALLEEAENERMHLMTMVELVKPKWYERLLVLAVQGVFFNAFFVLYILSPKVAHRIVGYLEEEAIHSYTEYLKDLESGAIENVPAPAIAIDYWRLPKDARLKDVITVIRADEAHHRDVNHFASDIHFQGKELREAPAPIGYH
The following applies: activator; 2.5 mM NADH, 5 mM DTT, 1 mM KCN, pH 7.0; discussion text b26 prints 90 μM; read-out: Present study / K1/2 PYR. An excerpt:
O2 consumption (Clark electrode), activation of AOX in inverted membrane vesicles on GmAOX2A

The next test has as its target T3, GmAOX2D (Glycine max, UniProt O03376).
T3 construct: gene AOX3; mature form, predicted mitochondrial target peptide removed, new start Met (forward primer encodes M-STLPEVK), pET22b(+), E. coli BHH8 inverted membrane vesicles; apparent 31 kDa; reduced (DTT)
T3 sequence (O03376 51-326): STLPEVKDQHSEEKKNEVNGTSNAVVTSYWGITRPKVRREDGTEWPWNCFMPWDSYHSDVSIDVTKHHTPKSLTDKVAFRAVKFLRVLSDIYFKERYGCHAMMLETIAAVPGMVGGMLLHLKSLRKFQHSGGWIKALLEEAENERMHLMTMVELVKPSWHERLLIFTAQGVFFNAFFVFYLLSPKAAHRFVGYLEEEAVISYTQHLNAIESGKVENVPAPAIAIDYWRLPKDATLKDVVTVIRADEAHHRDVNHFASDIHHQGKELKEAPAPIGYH
The following applies: activator; 2.5 mM NADH, 5 mM DTT, 1 mM KCN, pH 7.0; read-out: Present study / K1/2 PYR. An excerpt: O2 consumption (Clark electrode), activation of AOX in inverted membrane vesicles on GmAOX2D

Take `CC(=O)C(=O)O` [pyruvate]: the EC50 was found to be 4 µM at GmAOX1, 99 µM at GmAOX2A and 40 µM at GmAOX2D.
